Experimental data from ChEMBL document CHEMBL5303573, “Mapping human microbiome drug metabolism by gut bacteria and their genes” (Nature, 2019).

Tests used:
[1] = bacteroides thetaiotaomicron, 12 h, 2 µM
Description: The drug is tested on Bacteroides thetaiotaomicron strain: 3731 for biotransformation. The drug concentrations were measured before and after a 12-h incubation by liquid-chromatography-coupled mass spectrometry (LC–MS)

[2] = The drug is tested on Clostridium ramosum strain: DSM1402 for biotransformation. The drug concentrations were measured before and after a 12-h incubation by liquid-chromatography-coupled mass spectrometry (LC–MS); conditions: thomasclavelia ramosa, 2 µM
[3] = bacteroides eggerthii, 12 h, 2 µM
Description: The drug is tested on Bacteroides eggerthii strain: DSM20697 for biotransformation. The drug concentrations were measured before and after a 12-h incubation by liquid-chromatography-coupled mass spectrometry (LC–MS)

[4] = The drug is tested on Clostridium symbiosum strain: ATCC14940 for biotransformation. The drug concentrations were measured before and after a 12-h incubation by liquid-chromatography-coupled mass spectrometry (LC–MS); conditions: 2 µM
[5] = The drug is tested on Blautia luti strain: DSM14534 for biotransformation. The drug concentrations were measured before and after a 12-h incubation by liquid-chromatography-coupled mass spectrometry (LC–MS); assay type: ADME; design: dose 2 uM, timepoint 0 vs 12 hours; conditions: 2 µM
[6] = The drug is tested on Eggerthella lenta strain: ATCC25559 for biotransformation. The drug concentrations were measured before and after a 12-h incubation by liquid-chromatography-coupled mass spectrometry (LC–MS); conditions: 2 µM

SMILES	Bacterial Biotransformation [1]	Bacterial Biotransformation [2]	Bacterial Biotransformation [3]	Bacterial Biotransformation [4]	Bacterial Biotransformation [5]	Bacterial Biotransformation [6]
Nc1nnc(-c2cccc(Cl)c2Cl)c(N)n1 [LAMOTRIGINE]	Compound NOT metabolized	Compound NOT metabolized	Compound NOT metabolized	Compound NOT metabolized	Compound NOT metabolized	–
Cc1ccccc1C(OCCN(C)C)c1ccccc1.O=C(O)CC(O)(CC(=O)O)C(=O)O (stereo unspecified) [ORPHENADRINE CITRATE]	Compound NOT metabolized	–	Compound NOT metabolized	Compound NOT metabolized	Compound NOT metabolized	–
O=C(Nc1ccccc1)OCC(CN1CCCCC1)OC(=O)Nc1ccccc1 (stereo unspecified) [DIPERODON]	Compound NOT metabolized	Compound NOT metabolized	Compound NOT metabolized	Compound NOT metabolized	Compound NOT metabolized	–
OC(Cn1cncn1)(Cn1cncn1)c1ccc(F)cc1F [FLUCONAZOLE]	–	Compound NOT metabolized	–	Compound metabolized	Compound NOT metabolized	Compound NOT metabolized
CN1CCN2c3ccccc3Cc3ccccc3C2C1 (stereo unspecified) [MIANSERIN]	Compound NOT metabolized	Compound NOT metabolized	Compound NOT metabolized	Compound NOT metabolized	Compound NOT metabolized	–
Br.COc1ccc2c(c1)[C@]13CCCC[C@@H]1[C@H](C2)N(C)CC3.O [DEXTROMETHORPHAN HYDROBROMIDE]	–	Compound NOT metabolized	Compound NOT metabolized	Compound NOT metabolized	Compound NOT metabolized	–
CN1C(=O)CC(C)(c2ccccc2)C1=O (stereo unspecified) [METHSUXIMIDE]	Compound NOT metabolized	Compound NOT metabolized	Compound NOT metabolized	Compound NOT metabolized	Compound NOT metabolized	–
OCCN(CCO)c1nc(N2CCCCC2)c2nc(N(CCO)CCO)nc(N3CCCCC3)c2n1 [DIPYRIDAMOLE]	Compound NOT metabolized	–	Compound NOT metabolized	Compound NOT metabolized	Compound NOT metabolized	Compound NOT metabolized
CC(C)[C@H]1CC[C@H](C(=O)N[C@H](Cc2ccccc2)C(=O)O)CC1 [NATEGLINIDE]	Compound NOT metabolized	Compound NOT metabolized	Compound NOT metabolized	Compound NOT metabolized	–	–
COc1ccccc1N1CCN(CC(O)COc2cccc3ccccc23)CC1 (stereo unspecified) [NAFTOPIDIL]	Compound NOT metabolized	Compound NOT metabolized	Compound NOT metabolized	Compound NOT metabolized	Compound NOT metabolized	Compound NOT metabolized
COCCCC/C(=N\OCCN)c1ccc(C(F)(F)F)cc1.O=C(O)/C=C\C(=O)O [FLUVOXAMINE MALEATE]	Compound metabolized	–	Compound NOT metabolized	Compound NOT metabolized	Compound NOT metabolized	–
COCCc1ccc(OCC(O)CNC(C)C)cc1.COCCc1ccc(OCC(O)CNC(C)C)cc1.O=C(O)C(O)C(O)C(=O)O (stereo unspecified) [METOPROLOL TARTRATE]	–	Compound NOT metabolized	Compound NOT metabolized	Compound NOT metabolized	Compound NOT metabolized	Compound NOT metabolized
O=C1[C@H](CC[C@H](O)c2ccc(F)cc2)[C@@H](c2ccc(O)cc2)N1c1ccc(F)cc1 [EZETIMIBE]	Compound NOT metabolized	Compound NOT metabolized	Compound NOT metabolized	Compound NOT metabolized	Compound NOT metabolized	–
CN1CCc2c(c3ccccc3n2Cc2ccccc2)C1.CN1CCc2c(c3ccccc3n2Cc2ccccc2)C1.O=S(=O)(O)c1cccc2c(S(=O)(=O)O)cccc12	Compound NOT metabolized	Compound NOT metabolized	Compound NOT metabolized	Compound NOT metabolized	Compound NOT metabolized	Compound NOT metabolized
CN1CCC(OC(c2ccccc2)c2ccccc2)CC1	Compound NOT metabolized	–	Compound NOT metabolized	Compound NOT metabolized	Compound NOT metabolized	–
Cc1ccc(NC(=O)c2ccc(CN3CCN(C)CC3)cc2)cc1Nc1nccc(-c2cccnc2)n1 [IMATINIB]	Compound NOT metabolized	–	Compound NOT metabolized	–	Compound NOT metabolized	Compound NOT metabolized

SMILES	Bacterial Biotransformation [1]	Bacterial Biotransformation [2]	Bacterial Biotransformation [3]	Bacterial Biotransformation [4]	Bacterial Biotransformation [5]	Bacterial Biotransformation [6]
CN(C)CCC=C1c2ccccc2COc2ccccc21 [DOXEPIN]	Compound NOT metabolized	–	Compound NOT metabolized	Compound NOT metabolized	Compound NOT metabolized	–
CC(C)N(CCC(C(N)=O)(c1ccccc1)c1ccccn1)C(C)C.O=P(O)(O)O (stereo unspecified) [DISOPYRAMIDE PHOSPHATE]	–	–	Compound NOT metabolized	Compound NOT metabolized	Compound NOT metabolized	–
O=C1NCC2(CCN(CCc3ccccc3)CC2)O1 [FENSPIRIDE]	Compound metabolized	Compound NOT metabolized	–	Compound NOT metabolized	Compound NOT metabolized	–
CC(C)c1c(CN(C)C(C)Cc2ccccc2)n(C)n(-c2ccccc2)c1=O (stereo unspecified) [FAMPROFAZONE]	Compound metabolized	–	Compound metabolized	Compound NOT metabolized	Compound NOT metabolized	–
Fc1ccc([C@@H]2CCNC[C@H]2COc2ccc3c(c2)OCO3)cc1 [PAROXETINE]	Compound metabolized	Compound NOT metabolized	Compound NOT metabolized	Compound NOT metabolized	Compound NOT metabolized	–
CN1CCOC(c2ccccc2)c2ccccc2C1 (stereo unspecified) [NEFOPAM]	Compound NOT metabolized	–	Compound NOT metabolized	Compound NOT metabolized	Compound NOT metabolized	–
Cc1ccnc2c1NC(=O)c1cccnc1N2C1CC1 [NEVIRAPINE]	Compound NOT metabolized	–	Compound NOT metabolized	Compound NOT metabolized	Compound NOT metabolized	–
COc1ccc2c3c1O[C@H]1C[C@@H](O)C=C[C@@]31CCN(C)C2 [GALANTAMINE]	Compound metabolized	–	Compound metabolized	Compound NOT metabolized	Compound NOT metabolized	–
Nc1nc(N)nc(-c2cc(Cl)ccc2Cl)n1.O=C(O)/C=C\C(=O)O [IRSOGLADINE MALEATE]	Compound NOT metabolized	–	Compound NOT metabolized	Compound NOT metabolized	Compound NOT metabolized	–
CC(=O)O[C@]1(C(C)=O)CC[C@H]2[C@@H]3C=C(C)C4=CC(=O)CC[C@]4(C)[C@H]3CC[C@@]21C [MEGESTROL ACETATE]	Compound metabolized	Compound NOT metabolized	Compound metabolized	Compound NOT metabolized	–	Compound NOT metabolized
C[C@H]1O[C@@H](O[C@H]2[C@@H](O)C[C@H](O[C@H]3[C@@H](O)C[C@H](O[C@H]4CC[C@@]5(C)[C@H](CC[C@@H]6[C@@H]5C[C@@H](O)[C@]5(C)[C@@H](C7=CC(=O)OC7)CC[C@]65O)C4)O[C@@H]3C)O[C@@H]2C)C[C@H](O)[C@@H]1O [DIGOXIN]	Compound NOT metabolized	Compound NOT metabolized	Compound metabolized	Compound NOT metabolized	Compound NOT metabolized	–
CC(=O)CCCCn1c(=O)c2c(ncn2C)n(C)c1=O [PENTOXIFYLLINE]	Compound NOT metabolized	–	Compound NOT metabolized	Compound NOT metabolized	Compound NOT metabolized	–
CN(C)C(=O)Oc1cccc([N+](C)(C)C)c1.[Br-] [NEOSTIGMINE BROMIDE]	Compound metabolized	Compound NOT metabolized	–	Compound NOT metabolized	Compound NOT metabolized	Compound NOT metabolized
CN1[C@@H]2CC[C@H]1C[C@@H](OC(=O)C(CO)c1ccccc1)C2 (stereo partly specified) [ATROPINE]	–	–	Compound NOT metabolized	–	Compound NOT metabolized	Compound NOT metabolized
O=C(O)CCc1nc(-c2ccccc2)c(-c2ccccc2)o1 [OXAPROZIN]	Compound metabolized	–	Compound NOT metabolized	Compound NOT metabolized	Compound NOT metabolized	–
CCN(CC)C(C)CN1c2ccccc2Sc2ccccc21 (stereo unspecified) [ETHOPROPAZINE]	Compound NOT metabolized	–	Compound NOT metabolized	Compound NOT metabolized	Compound NOT metabolized	–
